Measurements as given in US9265739B2, “Methods and use of compounds that bind to HER2/neu receptor complex” (The Trustees Of The University Of Pennsylvania, priority 2010, dated 2016).

What was measured:
T6-17 cells [1] = assay: MTT cell proliferation assay, T6-17 cells; format: cell-based, murine; details: indicated doses, three days, FIG. 3
Excerpt: (§1) The activity of S22-57 in cell proliferation assays using different cell lines was examined. T6-17 is a murine cell line engineered to express human HER2/neu. […] HBL100 is an immortalized human breast cancer cell line. XHT-1-1A are mouse NIH3T3 cells transformed by Harvey-RAS (XHT-1-1a) previously developed and used (Drebin, et al., Cell 41, 697-706 (1985)). Both HBL100 and XHT-1-1A are used as controls. To measure cell proliferation, we used the modified 3-[4,5-dimethylthiazol-2-yl]-2,5-diphenyl tetrazolium bromide (MTT) assay as previously described (Masuda, et al., Oncogene 25, 7740-7746 (2006)). Cells (2000-5000 cells/well) were seeded in 96-well plates in the presence of inhibitors with different concentration and incubated at 37° C. in a humidified 5% CO2 atmosphere. After 72 h, cells were incubated in fresh medium for another 4 hours before a total of 25 μl of MTT solution (5 mg/ml in PBS) was added to each well, and after 2 h of incubation at 37° C., 100 μl of the extraction buffer (20% w/v SDS, 50% N,N-dimethyl formamide, pH 4.7) was added. After an overnight incubation at 37° C., the optical density at 570 nm was measured using a Tecan ELISA reader. […] Proliferation of cells was measured by the MTT assay.

SK-BR-3 cells = assay: Soft agar colony growth screening, SK-BR-3 cells; format: cell-based; details: soft agar colonies counted on day 21, relative to DMSO control, p<0.05, FIG. 1/2
Description: (§2) Targeted molecules were screened in vitro for anti-tumor activity using a modified […] growth of transformed cell assay, as described in Fukazawa et al. (1995), Anal. Biochem., 10:83-90. Anchorage-independent growth capability is perhaps the best indicator of the malignant phenotype and is determined by efficiency of cells to form colonies in soft agar (Drebin, et al., Cell 41, 697-706 (1985)). All experiments were conducted in 6 cm dishes in triplicate. Agar bottom layers consisted of 3 ml 0.25% agarose/DMEM (Dulbecco's Modified Eagle Medium) supplemented with 10% FBS (Fetal Bovine Serum), 2 mM L-glutamine, and 100 u/ml Penicillin/1 μg/ml Streptomycin. About 1000-2000 cells T6-17/SK-BR-3 are layered on the top in 1 ml 0.18% agarose/DMEM, 10% FBS, 2 mM L-glutamine, and 100 μ/ml Penicillin/1 μg/ml Streptomycin. Cultures were treated every 3 days with 0.5 ml of supplemented DMEM containing measured amounts of the Her2 inhibitors, or DMSO (dimethyl sulfoxide) alone. On the day before the colonies were counted, the samples were incubated with 1 ml of Hank's Balanced Salt Solution containing 1 mg/ml p-iodonitrotetrazolium violet (INT, Sigma) to stain colonies. The next day, colonies were counted using a 7× achromatic magnifying eyepiece (Bausch and Lomb). Triplicate cultures were counted on day 21 and will be verified by at least two different persons. […]

T6-17 cells [2] = assay: Soft agar colony growth screening, T6-17 cells; format: cell-based, murine; details: soft agar colonies counted on day 21, relative to DMSO control, p<0.05, FIG. 1/2
Description: as §2

[3] = system: HER2 (phosphorylation at Y877); assay: Inhibition of HER2 phosphorylation in HC1 cells (western blot); format: cell-based, human; details: serum-starved HC1 cells, inhibitor 1 hour, EGF 50 ng/ml 10 minutes, FIG. 4
Description: The effect of S22-57 was also examined in the cetuximab-resistant non-small cell lung cancer cell line HC1. Confluent HC1 cells were first serum starved for 24 hours before exposed to inhibitors as indicated for 1 hour. Cells were then stimulated by EGF (50 ng/ml) for 10 minutes. […] Both antibodies were purchased from Cell Signaling.

HC1 cells = assay: MTT cell proliferation assay, HC1 cells; format: cell-based, human; details: indicated doses, three days, FIG. 3
Excerpt: as §1

O=C(CCc1cc(C(F)(F)F)cc(C(F)(F)F)c1)NN/C=C1\C=C(Cl)C=C(Cl)C1=O [S22-57]
inhibition of proliferation of T6-17 cells (T6-17 cells [1]): inhibited T6-17 and HC1 dose-dependently | effect on SK-BR-3 cell proliferation (colony growth in culture) (SK-BR-3 cells): reduced cellular growth in culture relative to DMSO control | effect on T6-17 cell proliferation (colony growth in culture) (T6-17 cells [2]): reduced cellular growth in culture relative to DMSO control | EGF-stimulated phosphorylation of HER2 at Y877 [3]: inhibited | inhibition of proliferation of HC1 cells (HC1 cells): inhibited T6-17 and HC1 dose-dependently
